In assay [1] the target is T1, thermally-denatured collagen (gelatin) films (Rattus norvegicus, UniProt P02454+P02466).
T1 construct: To make gelatin films, the same collagen solution was denatured at 70° C. for 15 minutes; purchased BD Science; host or cells: rat tail
As to the kind of experiment: Photo-triggered CMP binding assay on gelatin films. As to the method:
Collagen/gelatin binding assays. Collagen solution (200 μL, 3.71 mg/mL, type I rat tail, BD Science) in 0.02 N acetic acid was added to each well of a 96-well black/clear-bottom plate (Costar) and air-dried. To make gelatin films, the same collagen solution was denatured at 70° C. for 15 minutes before applying to the well. The dried films were neutralized and washed with 1×PBS buffer (pH 7.4) and deionized water. PBS solution of carboxyfluorescein-labeled caged CMP (40 μL, 50 μM, unless indicated otherwise) pre-equilibrated at 4° C. was added onto each reconstituted collagen or gelatin film and exposed to 365 nm UV light (10 mW/cm^2, from mercury arc lamp) for 11 minutes on ice. Wells for the UV-negative control groups were covered with aluminum foil to block UV exposure. After incubation at 4° C. for over 3 hours (unless indicated otherwise), the unbound materials were removed by rinsing with PBS buffer and deionized water. The films were allowed to dry in dark, after which the fluorescence (ex: 489 nm, em: 533 nm) was measured with a SpectraMax Gemini XPS microplate reader (Molecular Devices). Each binding experiment was done in triplicate.

In assay [2] the target is T2, type I collagen films (Rattus norvegicus, UniProt P02454+P02466).
T2 construct: Collagen solution (200 μL, 3.71 mg/mL, type I rat tail, BD Science); purchased BD Science; host or cells: rat tail
T2 sequence (P02454 152-1207 limits assumed): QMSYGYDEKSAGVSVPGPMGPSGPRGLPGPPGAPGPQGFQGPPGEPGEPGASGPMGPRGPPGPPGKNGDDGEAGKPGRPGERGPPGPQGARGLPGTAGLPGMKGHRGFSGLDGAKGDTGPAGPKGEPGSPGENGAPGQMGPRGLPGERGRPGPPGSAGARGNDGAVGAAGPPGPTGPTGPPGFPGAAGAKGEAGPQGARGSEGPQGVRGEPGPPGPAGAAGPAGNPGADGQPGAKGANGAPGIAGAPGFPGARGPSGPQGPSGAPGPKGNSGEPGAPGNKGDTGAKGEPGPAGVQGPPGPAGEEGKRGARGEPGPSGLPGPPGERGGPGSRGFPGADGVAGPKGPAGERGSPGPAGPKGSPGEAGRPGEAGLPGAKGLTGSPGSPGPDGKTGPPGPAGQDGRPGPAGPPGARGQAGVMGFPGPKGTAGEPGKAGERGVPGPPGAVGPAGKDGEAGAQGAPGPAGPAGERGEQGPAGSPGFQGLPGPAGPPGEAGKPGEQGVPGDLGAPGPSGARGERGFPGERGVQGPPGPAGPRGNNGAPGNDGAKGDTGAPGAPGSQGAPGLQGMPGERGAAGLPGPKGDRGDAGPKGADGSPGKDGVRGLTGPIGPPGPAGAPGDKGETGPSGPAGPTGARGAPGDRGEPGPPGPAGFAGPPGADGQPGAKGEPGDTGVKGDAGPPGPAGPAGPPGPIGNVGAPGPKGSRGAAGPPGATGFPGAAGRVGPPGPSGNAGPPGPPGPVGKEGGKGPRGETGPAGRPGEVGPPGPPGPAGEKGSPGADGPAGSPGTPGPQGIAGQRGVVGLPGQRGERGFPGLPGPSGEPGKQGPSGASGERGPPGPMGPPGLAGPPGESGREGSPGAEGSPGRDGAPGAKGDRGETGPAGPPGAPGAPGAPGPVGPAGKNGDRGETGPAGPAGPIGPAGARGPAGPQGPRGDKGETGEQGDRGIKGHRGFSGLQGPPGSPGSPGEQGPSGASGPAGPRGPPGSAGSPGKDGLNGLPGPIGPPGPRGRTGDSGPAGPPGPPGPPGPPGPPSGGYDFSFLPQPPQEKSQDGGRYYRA
T2 sequence (P02466 86-1125 limits assumed): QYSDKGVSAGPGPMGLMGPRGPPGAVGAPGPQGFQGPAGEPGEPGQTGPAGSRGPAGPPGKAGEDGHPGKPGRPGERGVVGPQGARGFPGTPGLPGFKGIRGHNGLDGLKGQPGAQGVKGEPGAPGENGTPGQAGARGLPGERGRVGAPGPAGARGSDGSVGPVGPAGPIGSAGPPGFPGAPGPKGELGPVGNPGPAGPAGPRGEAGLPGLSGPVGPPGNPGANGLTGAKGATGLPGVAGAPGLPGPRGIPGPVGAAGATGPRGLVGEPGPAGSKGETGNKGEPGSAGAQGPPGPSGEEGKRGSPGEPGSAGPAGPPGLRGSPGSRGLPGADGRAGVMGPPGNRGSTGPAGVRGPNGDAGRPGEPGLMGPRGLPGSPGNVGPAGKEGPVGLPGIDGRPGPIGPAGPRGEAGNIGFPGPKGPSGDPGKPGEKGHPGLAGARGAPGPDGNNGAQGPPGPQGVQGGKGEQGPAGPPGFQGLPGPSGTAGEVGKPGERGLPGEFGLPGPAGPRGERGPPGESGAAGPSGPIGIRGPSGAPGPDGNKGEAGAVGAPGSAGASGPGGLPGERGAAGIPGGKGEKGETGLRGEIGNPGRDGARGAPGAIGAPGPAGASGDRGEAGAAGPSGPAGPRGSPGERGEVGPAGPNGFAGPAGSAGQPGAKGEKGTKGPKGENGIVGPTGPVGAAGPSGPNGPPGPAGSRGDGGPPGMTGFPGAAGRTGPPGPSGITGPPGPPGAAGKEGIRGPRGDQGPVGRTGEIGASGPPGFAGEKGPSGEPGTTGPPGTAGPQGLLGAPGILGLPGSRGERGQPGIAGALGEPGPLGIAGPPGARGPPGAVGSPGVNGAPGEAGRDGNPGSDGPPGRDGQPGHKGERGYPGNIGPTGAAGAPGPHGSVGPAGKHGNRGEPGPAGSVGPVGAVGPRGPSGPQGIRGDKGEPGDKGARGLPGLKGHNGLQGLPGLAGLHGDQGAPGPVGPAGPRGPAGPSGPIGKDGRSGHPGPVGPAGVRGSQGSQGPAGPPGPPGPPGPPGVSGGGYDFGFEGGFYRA
Kind of assay: Quantification of CF(GPO)9 bound on type I collagen films. The assay is classed as binding. Conditions: UV+, collagenase digestion, standard curve. As to the method: Quantification of CF(GPO)9 (SEQ ID NO: 10) bound on type I collagen films. Following photo-induced binding, CMP-bound collagen films (e.g. the UV+ group of FIG. 10A) were digested with 200 μL of collagenase (Sigma, C0130) solutions (1 mg/mL) in TESCA buffer (50 mM TES buffer with 1.36 mM CaCl2, pH 7.4) for 1 hr at 37° C. The digested solutions were directly used for fluorescence measurement (ex: 489 nm, em: 533 nm). For the standard curve, a series of solutions containing known amounts of CF^NB(GPO)9 (SEQ ID NO: 4) (0 to 0.35 nmol) were applied to blank collagen films and air-dried, followed by collagenase digestion and fluorescence measurement as described above. The amount of bound CF(GPO)9 (SEQ ID NO: 10) was determined by comparing the fluorescence intensity of the digested collagen/CMP solutions with the standard curve, and the binding density was determined by dividing the amount bound by the area of the well. The experiment was performed in triplicate.

Assay [3] relates to fibronectin and laminin. As to the kind of experiment: SDS-PAGE staining by heat activated fluorescent CMP, other ECM proteins. Type of assay: binding, bovine (fibronectin), murine (laminin). As to conditions: 6 μM, 2 μg protein per lane. From the text: (§1) Acid soluble rat-tail type I collagen, bovine type II collagen, and mouse type IV collagen were purchased from BD Bioscience (San Jose, Calif.). Complement component C1q from human serum, fibronectin from bovine plasma, and laminin from Engelbreth-Holm-Swarm murine sarcoma basement membrane were purchased from Sigma-Aldrich. ProMMP-1, and p-aminophenylmercuric acetate were acquired from EMD millipore. Human umbilical vein endothelial cells (HUVECs) and EGM-2 cell growth media were obtained from Lonza (Walkersville, Md.). Precast NuPAGE® Novex 4-12% Bis-Tris Gel (1.0 mm, 12 well), Novex® Sharp unstained protein standard, and SDS-PAGE running buffer, sample buffer, and other SDS-PAGE reagents were purchased from Life Technologies.
SDS-PAGE staining and imaging. Proteins were resolved on NuPAGE® Novex 4-12% bis-tris gels under denaturating conditions using an XCell SureLock™ Mini-Cell electrophoresis system (Life Technologies). NuPAGE® MOPS SDS running buffer containing 50 mM MOPS, 50 mM Tris Base, 0.1% SDS, and 1 mM EDTA (pH 7.7) was used. […] The fluorescence intensities of the protein bands were quantified using GE ImageQuant™ TL software. After fluorescence imaging, all gels were further stained with coomassie brilliant blue (CB) G-250 (Bio-Rad) for 2-3 hr followed by washing, and imaging under white light illumination using a Gel Doc EQ system (BioRad).

Assay [4] concerns collagen types I, II and IV. As to the kind of experiment: SDS-PAGE staining by heat activated fluorescent CMP, collagen types. Type of assay: binding, rat (I), bovine (II), mouse (IV). As to conditions: 6 μM, 2 μg protein per lane.
From the text: as §1
SDS-PAGE staining and imaging. Proteins were resolved on NuPAGE® Novex 4-12% bis-tris gels under denaturating conditions using an XCell SureLock™ Mini-Cell electrophoresis system (Life Technologies). NuPAGE® MOPS SDS running buffer containing 50 mM MOPS, 50 mM Tris Base, 0.1% SDS, and 1 mM EDTA (pH 7.7) was used. Protein samples were heated to 85° C. in NuPAGE® LDS sample denaturing buffer for 10 min before the gel loading. Unless specified otherwise, 2 μg of protein was used for each lane. The gels were run at 200 V for 50-60 min. Reducing conditions were used only for gels carrying type IV collagen, HUVECs lysate, and C1q, for which NuPAGE® reducing agent was mixed with the protein samples, and 500 μL of NuPAGE® antioxidant was added to the cathode buffer before loading. After electrophoresis, the gels were washed by deionized water briefly three times to remove the remaining SDS. […] The fluorescence intensities of the protein bands were quantified using GE ImageQuant™ TL software. After fluorescence imaging, all gels were further stained with coomassie brilliant blue (CB) G-250 (Bio-Rad) for 2-3 hr followed by washing, and imaging under white light illumination using a Gel Doc EQ system (BioRad).

T1 sequence (P02454 152-1207 limits assumed): as the sequence (P02454 152-1207 limits assumed) above
T1 sequence (P02466 86-1125 limits assumed): as the sequence (P02466 86-1125 limits assumed) above

As to CF-GGG-(GPO)4^NBGPO(GPO)4 [CF^NB(GPO)9], in assay [1] (caged, UV−), the “binding (fluorescence intensity of film)” value is “negligible”. In assay [1] (photo-activated (UV+)), the “level of binding on gelatin relative to collagen” value is on record as “an order of magnitude higher”. Moreover, the “density of photo-induced CMP binding to intact collagen” value in assay [2] is 0.56±0.03 nmol/cm^2.

Regarding CF-GGG-(GPO)9 [CF(GPO)9], in assay [3], the “staining of fibronectin and laminin bands” value is “no affinity to fibronectin and laminin”. The “staining of collagen bands” value in assay [4] is “binds to collagen types I, II and IV”.

As for “CF-GGG-PGOGPGPOPOGOGOPPGOOPGGOOPPG [CF^SG9P9O9, reference compound]”, the “staining of collagen bands” value in assay [4] is reported as “virtually no binding affinity to the collagen bands”; in assay [4] (listed as CFSG9P9O9), “revealed no collagen bands”.

These data come from US10426850B2, “Collagen mimetic peptides for targeting collagen strands for in vitro and in vivo imaging and therapeutic use” (The Johns Hopkins University, priority 2011, dated 2019).
